In paper PMC7580997 (Journal of medicinal chemistry, 2019):

Experiments:
A549 cells = experiment: IncuCyte S3 Caspase-3/7 apoptosis assay, A549; type: cell-based; details: nanomolar concentration
Plasma stability = type: in vitro ADME; details: mouse plasma 80% in PBS pH 7.4, 37 °C, 200 μM
HA-BIR3 of XIAP = HA-BIR3 of XIAP (Homo sapiens, UniProt P98170); experiment: Western blot; type: cell-based; details: HEK293T, 10 μM, 6 h
[1] = Solubility and chemical stability in aqueous buffer by 1H 1D NMR; type: physicochemical; details: aqueous buffer pH = 7.5, T = 25 °C
SK-MEL-28 cells = experiment: IncuCyte S3 Caspase-3/7 apoptosis assay, SK-MEL-28; type: cell-based, human; details: SK-MEL-28, co-treatment with TNFα, nanomolar concentration
BIR3 domain of cIAP1 = BIR3 domain of cIAP1 (Homo sapiens, UniProt Q13490); experiment: LC-MS of protein-compound covalent adduct, cIAP1-BIR3
BIR3 domain of cIAP1, sequence (Q13490 258-363 limits assumed): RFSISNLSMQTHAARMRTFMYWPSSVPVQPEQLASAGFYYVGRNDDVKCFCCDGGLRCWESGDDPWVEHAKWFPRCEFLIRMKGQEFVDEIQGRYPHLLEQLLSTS

HA-BIR3 of XIAP, sequence (P98170 253-347 limits assumed): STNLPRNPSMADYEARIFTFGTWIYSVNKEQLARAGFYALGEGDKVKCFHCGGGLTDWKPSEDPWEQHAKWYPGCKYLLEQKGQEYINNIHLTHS

Compound | induction of apoptosis by co-treatment with TNFα (A549 cells) | plasma stability t1/2 (Plasma stability) | stabilization of HA-BIR3 in cell (western blot band intensity) (HA-BIR3 of XIAP) | solubility in aqueous buffer (soluble up to) [1] | induction of apoptosis by co-treatment with TNFα (SK-MEL-28 cells) | mass increase of cIAP1-BIR3 (covalent adduct) (BIR3 domain of cIAP1)
CN[C@@H](C)C(=O)N[C@H]1CN(C(=O)CC(C)C)CC[C@H]2CC[C@@H](C(=O)NC(c3ccccc3)c3ccccc3)N2C1=O [AT406] | Time- and dose-dependent apoptosis was restored | similar | stabilized the BIR3 domain | similar | Time- and dose-dependent apoptosis was restored | 
CN[C@@H](C)C(=O)N[C@@H](Cc1ccc(OS(=O)(=O)F)cc1)C(=O)N1CCC[C@H]1C(=O)N[C@@H]1CCc2c(F)cccc21 [Compound 1, 4-((S)-3-((S)-2-(((R)-4-fluoro-2,3-dihydro-1-H-inden-1-yl)carbamoyl)pyrrolidin-1yl)-2-((S)-2-(methylamino)propanamido)-3-oxopropyl)phenyl sulfurofluoridate] |  |  |  |  |  | no increase in mass
CN[C@@H](C)C(=O)N[C@H](C(=O)N1CCC[C@H]1c1nc(C(=O)c2ccc(F)cc2)cs1)C1CCCCC1 [LCL161] | Time- and dose-dependent apoptosis was restored | similar | stabilized the BIR3 domain | similar | Time- and dose-dependent apoptosis was restored | 
